The values below come from patent US12030883B2, “Hetero-tricyclic compounds as inhibitors of KRAS” (Incyte Corporation, priority 2021, dated 2024).

For orientation: IC50 means the midpoint of a concentration-inhibition curve.

The target of assay [1] is T1, KRAS G12D (Homo sapiens, UniProt P01116, G12D). In words: GDP-GTP exchange assay, KRAS G12D (bodipy-GDP/GppNHp, SOS1). The following applies: bodipy-loaded KRAS G12D 2.5 nM, 4 hours pre-incubation with inhibitor, SOS1 150 nM, GppNHp 500 uM; read-out: G12D_exchange (KRAS_G12D exchange assay IC50). In kind it is biochemical. On the procedure: (§1) The inhibitor potency of the exemplified compounds was determined in a fluorescence based guanine nucleotide exchange assay, which measures the exchange of bodipy-GDP (fluorescently labeled GDP) for GppNHp (Non-hydrolyzable GTP analog) to generate the active state of KRAS in the presence of SOS1 (guanine nucleotide exchange factor). Inhibitors were serially diluted in DMSO and a volume of 0.1 μL was transferred to the wells of a black low volume 384-well plate. Five μL/well volume of bodipy-loaded KRAS G12D or G12V diluted to a final concentration of 2.5 nM in assay buffer (25 mM Hepes pH 7.5, 50 mM NaCl, 10 mM MgCl2 and 0.01% Brij-35) was added to the plate and pre-incubated with inhibitor for 4 hours (G12D) or 3 hours (G12V) at ambient temperature. A cyclic peptide described to selectively bind G12D mutant (Sakamoto et al., BBRC 484.3 (2017), 605-611) or internal compounds with confirmed binding were used as positive controls in the assay plates. The exchange was initiated by the addition of a 5 μL/well volume containing 1 mM GppNHp and 300 nM SOS1 in assay buffer. The 10 μL/well reaction concentration of the bodipy-loaded KRAS G12D or G12V, GppNHp, and SOS1 were 2.5 nM, 500 uM, and 150 nM, respectively.
T1 sequence (P01116 1-188 isoform P01116-2 G12D): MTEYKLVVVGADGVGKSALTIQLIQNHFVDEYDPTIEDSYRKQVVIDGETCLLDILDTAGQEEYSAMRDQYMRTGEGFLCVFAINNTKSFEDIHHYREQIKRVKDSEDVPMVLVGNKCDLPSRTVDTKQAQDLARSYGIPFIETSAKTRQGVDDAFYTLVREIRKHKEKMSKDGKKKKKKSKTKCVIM
(§2) Either GraphPad prism or XLfit was used to analyze the data. The IC50 values were derived by fitting the data to a four parameter logistic equation producing a sigmoidal dose-response curve with a variable Hill coefficient. Prism equation: Y=Bottom+(Top−Bottom)/(1+10^((LogIC50-X)*Hill slope)); XLfit equation: Y=(A+((B−A)/(1+((X/C)^D)))) where X is the logarithm of inhibitor concentration and Y is the response.

The target of assay [2] is KRAS G12V (Homo sapiens, UniProt P01116, G12V). The experiment in a line: GDP-GTP exchange assay, KRAS G12V (bodipy-GDP/GppNHp, SOS1). In kind it is biochemical. As to conditions: bodipy-loaded KRAS G12V 2.5 nM, 3 hours pre-incubation with inhibitor, SOS1 150 nM, GppNHp 500 uM; read-out: G12V_exchange (KRAS_G12V exchange assay IC50). The protocol:
as §1, §2

For assay [3], the target named is T1, KRAS G12D. The experiment in a line: KRAS_G12D pERK assay (cellular pERK HTRF assay). The assay is classed as cell-based. Also noted: host or cells: A427 or HPAF-II. The following applies: KRAS G12D cells (A427, HPAF-II named in method), 2 hours incubation, Phospho-ERK 1/2 HTRF; read-out: G12D_PERK (KRAS_G12D pERK assay IC50). The protocol: MIA PaCa-2 (KRAS G12C; ATCC® CRL-1420), A427 (KRAS G12D; ATCC® HTB53), HPAF-II (KRAS G12D; ATCC® CRL-1997) and NCI-H838 (KRAS WT; ATCC® CRL-5844) cells are purchased from ATCC and maintained in RPMI 1640 media supplemented with 10% FBS (Gibco/Life Technologies). The cells are plated at 5000 cells per well (8 uL) into Greiner 384-well low volume, flat-bottom, tissue culture treated white plates and incubated overnight at 37° C., 5% CO2. The next morning, test compound stock solutions are diluted in media at 3× the final concentration, and 4 uL are added to the cells. The plate is mixed by gentle rotation for 30 seconds (250 rpm) at room temperature. The cells are incubated with the KRAS G12C and G12D compounds for 4 hours or 2 hours respectively at 37° C., 5% CO2.
4 uL of 4× lysis buffer with blocking reagent (1:25) (Cisbio) are added to each well and plates are rotated gently (300 rpm) for 30 minutes at room temperature. 4 uL per well of Cisbio anti Phospho-ERK 1/2 d2 is mixed with anti Phospho-ERK 1/2 Cryptate (1:1) are added to each well, mixed by rotation and incubated overnight in the dark at room temperature. Plates are read on the Pherastar plate reader at 665 nm and 620 nm wavelengths. IC50 determination is performed by fitting the curve of inhibitor percent inhibition versus the log of the inhibitor concentration using the GraphPad Prism 7 software.

Sequence of KRAS G12V (P01116 1-188 isoform P01116-2 G12V): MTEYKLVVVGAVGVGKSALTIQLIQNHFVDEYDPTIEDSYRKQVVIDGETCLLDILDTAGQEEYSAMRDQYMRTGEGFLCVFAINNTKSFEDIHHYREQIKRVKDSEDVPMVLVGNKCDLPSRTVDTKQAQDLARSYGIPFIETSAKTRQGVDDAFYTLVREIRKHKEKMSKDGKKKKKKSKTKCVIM

With `CN(C)C1CN(c2nc3c(F)c(-c4cc(O)cc5ccccc45)c(CCC#N)cc3c3c2NC(=O)CN3C2C3CNC2C3)C1` (single isomer, unassigned) [Example 13a, 3-(1-((endo)-2-Azabicyclo[2.1.1]hexan-5-yl)-5-(3-(dimethylamino)azetidin-1-yl)-7-fluoro-8-(3-hydroxynaphthalen-1-yl)-3-oxo-1,2,3,4-tetrahydropyrazino[2,3-c]quinolin-9-yl)propanenitrile], the IC50 in assay [1] is ≤ 100 nM; in assay [2], ≤ 100 nM; in assay [3], 1000 to 5000 nM.
Turning to `N#CCCc1cc2c3c(c(-c4ccc5cccnc5c4)nc2c(F)c1-c1cc(O)cc2ccccc12)NC(=O)CN3C1C2CNC1C2` (single isomer, unassigned) [Example 6a, 3-(1-((endo)-2-Azabicyclo[2.1.1]hexan-5-yl)-7-fluoro-8-(3-hydroxynaphthalen-1-yl)-3-oxo-5-(quinolin-7-yl)-1,2,3,4-tetrahydropyrazino[2,3-c]quinolin-9-yl)propanenitrile], the half-inhibitory concentration (IC50) in assay [1] was ≤ 100 nM; in assay [2], ≤ 100 nM; in assay [3], 1000 to 5000 nM.
For `C[C@H](Oc1nc2c(F)c(-c3cccc(Cl)c3Cl)c(CCC#N)cc2c2c1c(=O)c(-c1cnn(C)c1)cn2[C@H]1[C@H]2CN[C@@H]1C2)[C@@H]1CCCN1C` (single isomer, unassigned) [Example 24a], the IC50 in assay [1] was ≤ 100 nM; in assay [2] it was ≤ 100 nM; in assay [3], 5000 to 10000 nM.
As to `N#CCCc1cc2c3c(c(OC[C@@]45CCCN4C[C@H](F)C5)nc2c(F)c1-c1cc(O)cc2ccccc12)NC(=O)CN3C1C2CNC1C2` (single isomer, unassigned) [Example 10b], the figures for the IC50 in assay [1], in assay [2] and in assay [3] were ≤ 100 nM, ≤ 100 nM and 1000 to 5000 nM, respectively.
In the case of `C[C@H](Oc1nc2c(F)c(-c3c[nH]c4ccccc34)c(CCC#N)cc2c2c1NC(=O)CN2C1C2CNC1C2)[C@@H]1CCCN1C` (single isomer, unassigned) [Example 1a], the 50% inhibitory concentration (IC50) in assay [1], in assay [2] and in assay [3] was ≤ 100 nM each time.
On to `C[C@H](Oc1nc2c(F)c(-c3cccc(Cl)c3Cl)c(CCC#N)cc2c2c1c(=O)c(-c1cnn(C)c1)cn2[C@H]1[C@H]2CN[C@@H]1C2)[C@@H]1CCCN1C` (single isomer, unassigned) [Example 24b], for which the 50% inhibitory concentration (IC50) in assay [1] was ≤ 100 nM; in assay [2] it was ≤ 100 nM; in assay [3], 100 to 1000 nM.
Regarding `C[C@H](Oc1nc2c(F)c(-c3cccc(Cl)c3Cl)c(CCC#N)cc2c2c1NC(=O)CN2C1C2CNC1C2)[C@@H]1CCCN1C` (single isomer, unassigned) [Example 2b], the IC50 is ≤ 100 nM in assay [1], ≤ 100 nM in assay [2] and 100 to 1000 nM in assay [3].
Regarding `CN1CCC[C@H]1COc1nc2c(F)c(-c3cc(O)cc4ccccc34)c(CCC#N)cc2c2c1CCCN2C1C2CNC1C2` (single isomer, unassigned) [Example 12b], the results for the IC50 in assay [1], in assay [2] and in assay [3] were ≤ 100 nM, ≤ 100 nM and 100 to 1000 nM, respectively.
With `C[C@@H](CN(C)C)Oc1nc2c(F)c(-c3cc(O)cc4ccccc34)c(CCC#N)cc2c2c1NC(=O)CN2C1C2CNC1C2` (single isomer, unassigned) [Example 11c], the values for the IC50 in assay [1], in assay [2] and in assay [3] were ≤ 100 nM, ≤ 100 nM and 100 to 1000 nM, respectively.
With `CC1Cc2c(OC[C@@H]3CCCN3C)nc3c(F)c(-c4cc(O)cc5ccccc45)c(CCC#N)cc3c2N(C2C3CNC2C3)C1` (single isomer, unassigned) [Example 14b], the IC50 is ≤ 100 nM in assay [1], ≤ 100 nM in assay [2] and 1000 to 5000 nM in assay [3].
With `CNC(=O)c1ccc(-c2nc3c(F)c(-c4cc(O)cc5ccccc45)c(CCC#N)cc3c3c2NC(=O)CN3C2C3CNC2C3)cn1` (single isomer, unassigned) [Example 5a, 5-(1-((endo)-2-Azabicyclo[2.1.1]hexan-5-yl)-9-(2-cyanoethyl)-7-fluoro-8-(3-hydroxynaphthalen-1-yl)-3-oxo-1,2,3,4-tetrahydropyrazino[2,3-c]quinolin-5-yl)-N-methylpicolinamide], the values for the IC50 in assay [1], in assay [2] and in assay [3] were ≤ 100 nM, ≤ 100 nM and 5000 to 10000 nM, respectively.
`C[C@H](Oc1nc2c(F)c(-c3cc(O)cc4ccccc34)c(CCC#N)cc2c2c1CCCN2C1C2CNC1C2)[C@@H]1CCCN1C` (single isomer, unassigned) [Example 15b]: the IC50 in assay [1], in assay [2] and in assay [3] was ≤ 100 nM in each case.
As for `CNC(=O)c1cccc(-c2nc3c(F)c(-c4cc(O)cc5ccccc45)c(CCC#N)cc3c3c2NC(=O)CN3C2C3CNC2C3)c1` (single isomer, unassigned) [Example 9a, 3-(1-((endo)-2-Azabicyclo[2.1.1]hexan-5-yl)-9-(2-cyanoethyl)-7-fluoro-8-(3-hydroxynaphthalen-1-yl)-3-oxo-1,2,3,4-tetrahydropyrazino[2,3-c]quinolin-5-yl)-N-methylbenzamide], the IC50 in assay [1] was ≤ 100 nM; in assay [2], ≤ 100 nM; in assay [3], 1000 to 5000 nM.
On to `C[C@@H](CN(C)C)Oc1nc2c(F)c(-c3cc(O)cc4ccccc34)c(CCC#N)cc2c2c1CCCN2C1C2CNC1C2` (single isomer, unassigned) [Example 16b], for which the IC50 was ≤ 100 nM in assay [1], ≤ 100 nM in assay [2] and 100 to 1000 nM in assay [3].
For `C[C@H](Oc1nc2c(F)c(-c3cc(O)cc4ccc(F)cc34)c(CCC#N)cc2c2c1NC(=O)CN2C1C2CNC1C2)[C@@H]1CCCN1C` (single isomer, unassigned) [Example 4c], the IC50 in assay [1], in assay [2] and in assay [3] was ≤ 100 nM in each case.
Consider `C[C@H](Oc1nc2c(F)c(-c3cc(O)cc4ccc(F)cc34)c(CCC#N)cc2c2c1NC(=O)CN2C1C2CNC1C2)[C@@H]1CCCN1C` (single isomer, unassigned) [Example 4d], for which the figures for the IC50 in assay [1], in assay [2] and in assay [3] were ≤ 100 nM, 100 to 1000 nM and 1000 to 5000 nM, respectively.
Turning to `C[C@H](Oc1nc2c(F)c(-c3cc(O)cc4ccc(F)cc34)c(CCC#N)cc2c2c1NC(=O)CN2C1C2CNC1C2)[C@@H]1CCCN1C` (single isomer, unassigned) [Example 4a], the IC50 in assay [1] and in assay [2] was 1000 to 5000 nM each time.
With `N#CCCc1cc2c3c(c(Cc4ccccc4)nc2c(F)c1-c1cc(O)cc2ccccc12)NC(=O)CN3C1C2CNC1C2` (single isomer, unassigned) [Example 8a, 3-(5-Benzyl-1-((endo)-2-azabicyclo[2.1.1]hexan-5-yl)-7-fluoro-8-(3-hydroxynaphthalen-1-yl)-3-oxo-1,2,3,4-tetrahydropyrazino[2,3-c]quinolin-9-yl)propanenitrile], the IC50 in assay [1] was in the range of 100 to 1000 nM; in assay [2] it was 1000 to 5000 nM.
On the same counts, the results for `CNC(=O)c1cccc(-c2nc3c(F)c(-c4cc(O)cc5ccccc45)c(CCC#N)cc3c3c2NC(=O)CN3C2C3CNC2C3)c1` (single isomer, unassigned) [Example 9b, 3-(1-((endo)-2-Azabicyclo[2.1.1]hexan-5-yl)-9-(2-cyanoethyl)-7-fluoro-8-(3-hydroxynaphthalen-1-yl)-3-oxo-1,2,3,4-tetrahydropyrazino[2,3-c]quinolin-5-yl)-N-methylbenzamide] are 1000 to 5000 nM and 1000 to 5000 nM.
